Laboratory results taken from patent US4012395A, “Process for preparing thiazolidinone acetic acid derivatives” (Warner-Lambert Company, priority 1974, dated 1977).

What was measured:
[1] = test system: diuresis of conscious dogs; assay: Diuresis in conscious dogs, intragastric administration; format: in vivo, dog (unanesthetized adult female Beagle); settings: for maximal achievable effect on the diuresis (urine excretion): 25.0 mg/kg
Description: Experiments were carried out in 5 unanesthetized adult female Beagle dogs, weighing 15 to 22 kg, which were trained to lie on a table without fixation. The animals were not episiotomized. A rubber catheter was introduced into the bladder and excreted urine was collected separately for each animal and the volume measured in 30 minute intervals. After a constant urine flow was achieved, test substances were administered by stomach tube. The diuretics were diluted with saline solution so that a constant volume of 25 ml/kg was reached. Three animals received the test substances and two served as controls. The lowest dose of the diuretics administered was 1.56 mg/kg. Dosages were increased by a factor of 2 up to 50 mg/kg.

[2] = test system: urine excreted by each kidney, mongrel dogs; assay: Diuresis in anesthetized dogs, intravenous administration; format: in vivo, dog (male and female mongrel); settings: i.v.; for urinary excretion / urinary flow increased to: 32.0 mg/kg; for dose dependency of diuretic effect, r: 2.0 up to 64.0 mg/kg
Description: Experiments were performed in male and female mongrel dogs, anesthetized with pentobarbital. The body weight was between 9 and 11 kg. After laparotomy the proximal part of the ureters was canulated and the urine excreted by each kidney collected in periods of 10 minutes. Arterial and venous pressure were recorded throughout the experiment. At the beginning 1.5 ml/kg of a tempered saline solution were infused for one and a half hour. After constant urine-flow was reached, the diuretics were injected into the femoral vein. The initial dose was 2.0 mg/kg which was increased with the factor 2 up to 64.0 mg/kg. Two animals were used for each dose level.

[3] = in vivo; settings: rat, iv
[4] = test system: potassium excretion in dogs; assay: Influence on potassium excretion (clearance experiments); format: in vivo, dog; settings: anesthetized dogs, with higher amounts of sodium excreted
Description: Animals were anesthetized by 30.0 mg/kg pentobarbital intravenously. At the beginning of the experiment one saline solution was infused within 1 hour. In the urine which was collected by using a bladder catheter besides other parameters potassium and sodium concentrations were determined by flame photometry.

[5] = test system: mice; assay: Acute toxicity in mice, intragastric; format: in vivo, mouse; settings: aqueous solution, within 48 hours
[6] = test system: rats; settings: rat, in vivo
[7] = Toxicity (general statement); settings: in vivo

Compound: CCOC(=O)/C=C1\SC(N2CCCCC2)C(=O)N1C (stereo not drawn) [Etozolin, ethyl-3-methyl-4-oxo-5-piperidino-Δ^2,α -thiazolidineacetate]
- maximal achievable effect on the diuresis (urine excretion) [1]: 7.8 ml/animal/min
- effect of dose increase on urine excretion ([1]; above 25.0 mg/kg): does not result in a further increase of urine excretion
- diuretic activity compared with 3282 [2]: far less active
- urinary excretion / urinary flow increased to [2]: 2.25 ml/minute per animal
- dose dependency of diuretic effect, r [2]: 0.5583
- LD50 [3]: 56.6 mg/kg

Compound: CN1C(=O)C(N2CCCCC2)SC1=CC(=O)O (stereo not shown) [Example 3282, (Z)-3-Methyl-4-oxo-5N-piperidino-thiazolidin-2-ylidene-acetic acid]
- maximal achievable effect on the diuresis (urine excretion) [1]: 10.9 ml/animal/min
- urinary excretion / urinary flow increased to [2]: 16 ml/minute per animal
- dose dependency of diuretic effect, r [2]: 0.8799
- increase of potassium excretion, Furosemide versus […] [4]: by far more increased with Furosemide than with 3282
- dosage up to which none of the animals died [5]: ≥ 2,250 mg/kg
- dosage up to which no deaths were seen [6]: ≥ 1,000 mg/kg
- acute toxicity (in words) [7]: very favorable
